{"source": "patent US9126060B2", "about": "“Cosmetic use of geranylgeranyl-2-propanol” (SEDERMA, priority 2010, dated 2015)", "key": {"[1]": {"assay": "Lipidic peroxidation of liposomes by UVA (conjugated dienes at 233 nm)", "assay_type": "biochemical", "description": "Principle: Cell membranes are composed of oxidable phospholipids. Using a cell-free model (unsaturated phospholipids based liposomes) and a reproducible oxidative stress (UVA radiation), it is possible to follow spectrophotometrically (at 233 nm) the formation of early by-products of lipoperoxidation that are conjugated dienes. An anti-lipoperoxidant agent can reduce or even eliminate this phenomenon."}, "human fibroblasts": {"tested_on": "human fibroblasts", "assay": "Lipidic peroxidation of fibroblast cellular membranes after UVA stress (MDA, TBARS method)", "assay_type": "cell-based", "conditions": "for MDA concentration: post UVA stress", "protocol": "Principle: human fibroblasts are grown to confluence and then placed or not in contact with the GGP for 72 hours. Following this contact, the GGP is removed and the cells are exposed to oxidative stress (UVA). After a further incubation with or without the GGP, malonaldehyde (MDA) is determined by the TBARS method (Thiobarbituric Acid Reactive Substances) and the value obtained divided by the amount of cellular protein."}, "stratum corneum": {"tested_on": "stratum corneum", "assay": "Ex vivo lipoperoxidation of stratum corneum extracts from volunteers (8-isoprostanes ELISA)", "assay_type": "in vivo, human", "conditions": "cream containing 0.04% of GGP 2 times daily for 2 months on forearm; compared with placebo extracts; H2O2/FeCl2 stress; 13 volunteers", "description": "Lipids of the stratum corneum are the primary targets of free radical aggressions. Thus, it seemed interesting to test the antiradical capacity of the GGP in ex vivo condition on extracts of stratum corneum from volunteers who applied for 2 months, on one arm a placebo cream and on the other arm the GGP cream (Formulation 2/2 in the examples given above). These extracts are stressed to oxidize lipids. A lower oxidation in skin extracts which were in contact with the GGP is seeked.\nPrinciple: 13 volunteers have applied 2 times daily for 2 months in a randomized manner the cream containing 0.04% of GGP on one forearm. The placebo cream was applied controlateral. Each subject was therefore their own control. At T0 and T2, specimens of stratum corneum were taken on the 2 arms with 3 adhesive discs per aim, and for each disk 15 take off (saturation of the disk).\nThe disks were stored at −20° C. until lipoperoxidation testing. After rapid thawing at room temperature, the 3 discs from the same arms were collected and sonicated in a suitable diluent, to take off and recover the maximum amount of stratum corneum samples. The resulting suspension was then stressed overnight at 45° C., using a H2O2/FeCl2 solution. The lipid peroxidation was assessed by measuring 8-isoprostanes (ELISA assay). The data were normalized using a protein assay."}, "presenescent fibroblasts": {"tested_on": "presenescent fibroblasts", "assay": "Mitochondrial membrane potential of presenescent fibroblasts (dye ratio λ520/λ590)", "assay_type": "cell-based", "conditions": "for Improvement of the respiration potential / Change with regard to non stressed young cells: with oxidative stress; for Change with regard to non stressed young cells: control −100%", "description": "It is possible to measure the membrane potential through a specific membrane dye. Depending on the level of the membrane potential, this dye is rather present as monomer (emission fluorescence at 520 nm) or rather in the multimetric form (fluorescence emission at 590 nm). High membrane potential promotes a multimetric form.\nThe ratio λ520/λ590 varies inversely with the membrane potential. The lower the ratio is, the higher the membrane potential is. The increase in the ratio thus reflects a decrease in membrane potential. The ratio λ520/λ590 for young and proliferating cells is 2.97+/−0.17.\n[…] After this period, the membrane potential of half of the cultures was measured.\nThe other half of the cultures underwent an oxidative stress (hydrogen peroxide) before measuring their membrane potential."}, "collagen I": {"tested_on": "collagen I", "assay": "Collagen I synthesis in presenescent fibroblasts (immunofluorescence, image analysis)", "assay_type": "cell-based, human", "conditions": "for collagen I: senescent cells, 11 days, n = 20 photos", "protocol": "Principle: The collagen I synthesis was monitored in pre-senescent human dermal fibroblasts. These cells were cultured for 11 days with the GGP in a growth medium. Following this incubation, the cell layers were fixed and labeled by immunofluorescence, to visualize the network of collagen I and to quantify by image analysis on photographs. In parallel, quantification was performed on proliferating cells."}, "fibroblasts": {"tested_on": "fibroblasts", "assay": "DNA array gene expression on fibroblasts", "assay_type": "cell-based"}, "hyaluronic acid": {"tested_on": "hyaluronic acid", "assay": "Hyaluronic acid synthesis in human fibroblasts", "assay_type": "cell-based", "conditions": "for hyaluronic acid (AH): 24 hours, n = 5", "protocol": "Principle: Human dermal fibroblasts were grown in plate for 24 hours. The cells are then placed in contact or not with GGP for 24 hours. Culture supernatants were collected and assayed for the amount of hyaluronic acid (HA) is then divided by the number of cells present on the layer. TGF-β1 is used as a positive control."}, "human dermal fibroblasts": {"tested_on": "human dermal fibroblasts", "assay": "Collagen gel contraction by human dermal fibroblasts cultivated until presenescence", "assay_type": "cell-based", "conditions": "for Gel heterogeneity / Gel surface: n = 5", "description": "Principle: Proliferative human dermal fibroblasts were cultivated with or without the GGP over several generations to obtain presenescent cells. A constant number of cells from each case was then included in a collagen gel. The contractile capacity of cells was then followed by using photographs. Quantification by image analysis, focused on the intensity of the contraction (gel surface) and the contraction quality (gel heterogeneity)."}, "Keratinocytes": {"tested_on": "Keratinocytes", "assay": "Keratinocyte culture survival and recovery after UVB stress (cell count)", "assay_type": "cell-based", "conditions": "for Cell number, mean (n = 3): UVB 50 mJ/cm^2, six days later", "protocol": "Keratinocytes in monolayer, after an UVB radiation (12 to 240 mJ/cm^2), develop on their surface many burgeons, detach from the culture medium, undergo damages up to death. A cell count at various times after UVB radiation is used to evaluate the cell viability of the culture. This model is widely used in cosmetics to evaluate the protective effect of various compounds against the deleterious effects of UVB stress.\nPrinciple: Keratinocytes were cultured in 35 mm dish. Just at confluence, the cells are contacted or not with the GGP for 24 hours. UVB irradiation (50 mJ/cm^2) is performed the next day, and the cells are or not contacted with the GGP. Six days later, the cells are counted to determine the cell viability in culture."}, "nidogen 1": {"tested_on": "nidogen 1", "assay": "Nidogen 1 biosynthesis in fibroblast culture (ELISA)", "assay_type": "cell-based, human", "conditions": "3 days, n = 5", "protocol": "Principle: Normal human fibroblasts were brought to confluence, then placed or not in contact with the GGP, at 1 or 2.5 ppm, for 3 days. After this incubation the nidogen 1 content is determined by ELISA in cell homogenates, and divided by the number of cells."}, "[2]": {"conditions": "after 3, 6 and 24 hours of contact"}, "[3]": {"conditions": "after 6 and 24 hours of contact"}}}
{"smiles": "CC(C)=CCC/C(C)=C/CC/C(C)=C/CC/C(C)=C/CCC(C)O", "note": "(stereo not shown) [GGP, 6,10,14,18-tetramethylnonadeca-5,9,13,17-tetraen-2-ol]", "values": [{"measurement": "% of peroxidation inhibition", "setting": "[1]; 8 ppm", "result": 14, "unit": "%"}, {"measurement": "% of peroxidation inhibition", "setting": "[1]; 26 ppm", "result": 24, "unit": "%"}, {"measurement": "% of peroxidation inhibition", "setting": "[1]; 80 ppm", "result": 75, "unit": "%"}, {"measurement": "% Change of MDA vs post-stress control", "setting": "human fibroblasts; 3 ppm", "result": "−20%; p < 0.01"}, {"measurement": "MDA concentration", "setting": "human fibroblasts; 3 ppm", "result": "881 +/− 36 nM/mg protein"}, {"measurement": "% Change of MDA vs post-stress control", "setting": "human fibroblasts; 5 ppm", "result": "−34%; p < 0.01"}, {"measurement": "MDA concentration", "setting": "human fibroblasts; 5 ppm", "result": "727 +/− 39 nM/mg protein"}, {"measurement": "% Change of MDA vs post-stress control", "setting": "human fibroblasts; 7 ppm", "result": "−53%; p < 0.01"}, {"measurement": "MDA concentration", "setting": "human fibroblasts; 7 ppm", "result": "515 +/− 11 nM/mg protein"}, {"measurement": "level of protection against oxidation", "setting": "stratum corneum", "result": "+44%"}, {"measurement": "% of protection of the respiration potential", "setting": "presenescent fibroblasts; 3 ppm, no stress", "result": "+22%; nsd"}, {"measurement": "ΔΨ loss with regard to non stressed young cells", "setting": "presenescent fibroblasts; 3 ppm, one week, no stress", "result": "1.11 +/− 0.33"}, {"measurement": "Improvement of the respiration potential", "setting": "presenescent fibroblasts; 3 ppm", "result": "+35%; p < 0.05"}, {"measurement": "ΔΨ loss with regard to non stressed young cells", "setting": "presenescent fibroblasts; 3 ppm, with oxidative stress (hydrogen peroxide)", "result": "3.57 +/− 0.69"}, {"measurement": "Change with regard to non stressed young cells", "setting": "presenescent fibroblasts; 3 ppm", "result": "−65", "unit": "%"}, {"measurement": "% of protection of the respiration potential", "setting": "presenescent fibroblasts; 5 ppm, no stress", "result": "+41%; p < 0.01"}, {"measurement": "ΔΨ loss with regard to non stressed young cells", "setting": "presenescent fibroblasts; 5 ppm, one week, no stress", "result": "0.84 +/− 0.08"}, {"measurement": "Improvement of the respiration potential", "setting": "presenescent fibroblasts; 5 ppm", "result": "+63%; p < 0.01"}, {"measurement": "ΔΨ loss with regard to non stressed young cells", "setting": "presenescent fibroblasts; 5 ppm, with oxidative stress (hydrogen peroxide)", "result": "2.03 +/− 0.69"}, {"measurement": "Change with regard to non stressed young cells", "setting": "presenescent fibroblasts; 5 ppm", "result": "−37", "unit": "%"}, {"measurement": "Change (%) of collagen I vs senescent cells", "setting": "collagen I; 3 ppm", "result": "+367%; p < 0.01"}, {"measurement": "collagen I", "setting": "collagen I; 3 ppm", "result": "280 +/− 220 UFA/10^4 cell"}, {"measurement": "Change (%) of collagen I vs senescent cells", "setting": "collagen I; 5 ppm", "result": "+483%; p < 0.01"}, {"measurement": "collagen I", "setting": "collagen I; 5 ppm", "result": "350 +/− 290 UFA/10^4 cell"}, {"measurement": "gene expression of actin gamma 2 (ACTG2)", "setting": "fibroblasts; [2]", "result": "increase in gene expression"}, {"measurement": "gene expression of filament associated actin protein (AFAP1L1)", "setting": "fibroblasts; [2]", "result": "increase in gene expression"}, {"measurement": "gene expression of hyaluronic acid synthase 2", "setting": "fibroblasts; [2]", "result": "increase in gene expression"}, {"measurement": "expression of JMJD6 gene", "setting": "fibroblasts; [3]", "result": "increased expression"}, {"measurement": "expression of PLOD2 gene", "setting": "fibroblasts; [3]", "result": "increased expression"}, {"measurement": "% of change of hyaluronic acid vs control", "setting": "hyaluronic acid; 3 ppm", "result": "+23%"}, {"measurement": "hyaluronic acid (AH)", "setting": "hyaluronic acid; 3 ppm", "result": "5322 +/− 157 ng of AH/10^6 cells"}, {"measurement": "% of change of hyaluronic acid vs control", "setting": "hyaluronic acid; 5 ppm", "result": "+33%"}, {"measurement": "hyaluronic acid (AH)", "setting": "hyaluronic acid; 5 ppm", "result": "5758 +/− 82 ng of AH/10^6 cells"}, {"measurement": "% of change of hyaluronic acid vs control", "setting": "hyaluronic acid; 7 ppm", "result": "+41%"}, {"measurement": "hyaluronic acid (AH)", "setting": "hyaluronic acid; 7 ppm", "result": "6101 +/− 320 ng of AH/10^6 cells"}, {"measurement": "% of change of hyaluronic acid vs control", "setting": "hyaluronic acid; 10 ppm", "result": "+46%"}, {"measurement": "hyaluronic acid (AH)", "setting": "hyaluronic acid; 10 ppm", "result": "6331 +/− 365 ng of AH/10^6 cells"}, {"measurement": "% change of gel surface vs control", "setting": "human dermal fibroblasts; 3 ppm", "result": "−17.5%; p < 0.01"}, {"measurement": "Gel heterogeneity", "setting": "human dermal fibroblasts; 3 ppm", "result": "22.9 +/− 4.1 UA"}, {"measurement": "Gel surface", "setting": "human dermal fibroblasts; 3 ppm", "result": "6.12 ± 1.94", "unit": "cm^2"}, {"measurement": "% change of gel surface vs control", "setting": "human dermal fibroblasts; 5 ppm", "result": "−21.5%; p < 0.01"}, {"measurement": "Gel heterogeneity", "setting": "human dermal fibroblasts; 5 ppm", "result": "21.8 +/− 3.6 UA"}, {"measurement": "Gel surface", "setting": "human dermal fibroblasts; 5 ppm", "result": "5.82 ± 1.69", "unit": "cm^2"}, {"measurement": "% change/control of cell number", "setting": "Keratinocytes; 1 ppm", "result": "+31%"}, {"measurement": "Cell number, mean (n = 3)", "setting": "Keratinocytes; 1 ppm", "result": "4.83 ×10^5/35 mm dish"}, {"measurement": "% change/control of cell number", "setting": "Keratinocytes; 1.65 ppm", "result": "+38%"}, {"measurement": "Cell number, mean (n = 3)", "setting": "Keratinocytes; 1.65 ppm", "result": "5.08 ×10^5/35 mm dish"}, {"measurement": "Stimulation % of nidogen 1 biosynthesis", "setting": "nidogen 1; 1 ppm", "result": "+28%"}, {"measurement": "Stimulation % of nidogen 1 biosynthesis", "setting": "nidogen 1; 2.5 ppm", "result": "+94%"}]}
